# Test results taken from patent EP2060268A1, “Pharmaceutical compositions for pulmonary or nasal delivery of peptides” (NOVO NORDISK A/S, priority 2007, dated 2009).
# Ends that are not written are not given here.
# Assays:
# [1] = Pharmacokinetics after intra-tracheal dry powder delivery to anaesthetised pigs; type: in vivo; conditions: pig, inhaled or intranasal, pramlintide/insulin aspart powder delivered intra-tracheally, plasma
# Experimental: For pulmonary delivery the PennCentury™ DP-4 dry powder insufflator (Penn-Century Inc) modified for pigs was used in combination with the PennCentury™ adjustable air pump, model AP-1 (Penn-Century Inc). The powder is weighed into the sample chamber of the device and manually emitted from the device by using the AP-1 adjustable pump.
# The pigs were fasted for approximately 18 h before the experiment. Anaesthesia was induced by injecting Domitor IV (1 mg/mL, 0.4 mL/pig), followed by slow IV infusion of Propofol (10 mg/ml) until the sufficient depth of anaesthesia was obtained, approximately 10-15 mL/pig in total. Atropin (1 mg/ml, 0.5 mL/pig) was injected i.m. to stabilize cardiac parameters and to decrease bronchial secretions. After anaesthesia (and) the pigs were intubated with an endotracheal tube size 8.0 mm. Via an L-piece and the endotraceal tube the pigs were connected to a respirator, with respiration frequency set to 10/min and tidal volume to 300 mL/breath to mimic deep inhalations in humans. […]
# Insulin aspart was analyzed using an in-house LOCI sandwich immunoassay with two different antibodies. […] Pramlintide was analyzed using a commercially available human amylin ELISA kit modified for porcine samples (Linco Research, cat. no. EZHA-52K). […]
# [2] = cited from earlier work
# [3] = when compared to human amylin; cited from earlier work
# [4] = Enhancement of peptide absorption in the lung by absorption enhancers (animal model); type: in vivo; conditions: tested as absorption enhancer, pulmonary route
# [5] = treated test animals; e.g. provoking marked hyperlactemia followed by hyperglycemia; cited from earlier work
Compound,enhancement of peptide absorption in the lung [4],amylin activity in vivo [5],also measured
"CC[C@H](C)[C@H](NC(=O)[C@@H]1CCCN1C(=O)CNC(=O)[C@H](Cc1ccccc1)NC(=O)[C@H](CC(N)=O)NC(=O)[C@H](CC(N)=O)NC(=O)[C@H](CO)NC(=O)[C@H](CO)NC(=O)[C@H](Cc1c[nH]cn1)NC(=O)[C@@H](NC(=O)[C@H](CC(C)C)NC(=O)[C@H](Cc1ccccc1)NC(=O)[C@H](CC(N)=O)NC(=O)[C@H](C)NC(=O)[C@H](CC(C)C)NC(=O)[C@H](CCCNC(=N)N)NC(=O)[C@H](CCC(N)=O)NC(=O)[C@@H](NC(=O)[C@H](C)NC(=O)[C@@H]1CSSC[C@H](NC(=O)[C@@H](N)CCCCN)C(=O)N[C@@H](CC(N)=O)C(=O)N[C@@H]([C@@H](C)O)C(=O)N[C@@H](C)C(=O)N[C@@H]([C@@H](C)O)C(=O)N1)[C@@H](C)O)C(C)C)C(=O)N[C@@H](CC(C)C)C(=O)N1CCC[C@H]1C(=O)N1CCC[C@H]1C(=O)N[C@H](C(=O)N[C@@H](CC(N)=O)C(=O)N[C@H](C(=O)NCC(=O)N[C@@H](CO)C(=O)N[C@@H](CC(N)=O)C(=O)N[C@H](C(=O)N[C@@H](Cc1ccc(O)cc1)C(N)=O)[C@@H](C)O)C(C)C)[C@@H](C)O [Symlin, ^25,28,29Pro-h-amylin]",,,Tmax [1]: 40 min; time to reach Cmax ([2]; after a subcutaneous injection): approximately 20 minutes; plasma t½ ([2]; subcutaneous injection): approximately 20 minutes; solubility and stability characteristics [3]: more desirable solubility and stability characteristics
C[C@H](CCC(=O)NCC(=O)O)[C@H]1CC[C@H]2[C@@H]3[C@H](O)C[C@@H]4C[C@H](O)CC[C@]4(C)[C@H]3C[C@H](O)[C@]12C [glycocholate],effectively enhance peptide absorption in the lung,,
CC(=O)OC1CC2(C)C(CC(O)C3C4(C)CCC(O)C(C)C4CCC32C)C1=C(CCCC(C)C)C(=O)NCCS(=O)(=O)O (stereo not drawn) [taurodihydrofusidate],effectively enhance peptide absorption in the lung,,
C[C@H](CCC(=O)O)[C@H]1CC[C@H]2[C@@H]3[C@@H](O)C[C@@H]4C[C@H](O)CC[C@]4(C)[C@H]3CC[C@]12C [ursodeoxycholate],effectively enhance peptide absorption in the lung,,
Dimethyl-β-cyclodextrin,absorption enhancing effect,,
"^18Arg^25, 28Pro-h-amylin",,show amylin activity in vivo,solubility and stability characteristics [3]: more desirable solubility and stability characteristics
"^25Pro^26Val^28, 29Pro-h-amylin",,,solubility and stability characteristics [3]: more desirable solubility and stability characteristics
"^28Pro-h-amylin (KCNTATCATQRLANFLVHSSNNFGAILPSTNVGSNTY; ends and bridges not checked; cysteine pairing not given here; UniProt P10997 34-70, looked up, variant S28P)",,show amylin activity in vivo,
"des-^1Lys-h-amylin (CNTATCATQRLANFLVHSSNNFGAILSSTNVGSNTY; ends and bridges not checked; cysteine pairing not given here; UniProt P10997 35-70, looked up, fragment)",,show amylin activity in vivo,
"des-^1Lys^18Arg^25, 28Pro-h-amylin",,show amylin activity in vivo,
lysophospatidylcholine,effective enhancer,,
